Data set [1] has as its system C57BL/6J mice. Description: Organ and epididymal fat weight. The data set is classed as in vivo. Conditions: orlistat 40 mg/kg/day, 8 weeks, Western diet. The procedure:
The total body weight gain (g/animal), daily feed intake (g/animal/day), and water consumption was monitored weekly throughout the study. The fecal collection was done per cage, separating fecal matter from bedding on a weekly basis and then stored at −80±3° C. until analysis. After the eight weeks of the study, animals were sacrificed by CO2 asphyxiation. Immediately after, blood was collected by cardiac puncture.

In data set [2] the test system is C57BL/6J mice. Description: Serum biochemical analysis (TG, HDL, LDL/VLDL, total cholesterol). It counts as in vivo. Conditions: orlistat 40 mg/kg/day, 8 weeks, fasting serum. The procedure: Total serum high-density lipoprotein (HDL), low-density lipoprotein (LDL)/very low-density lipoprotein (VLDL), and total cholesterol levels were quantified with HDL, and LDL/VLDL Colorimetric/Fluorometric assay Kit (LSK314100) obtained from Lifespan Bioscience (Seattle, […], USA). The assays were carried out following the manufacturer's instructions, and the absorbance was measured using Multiskan™ FC Microplate Photometer (Waltham, MA, USA). In addition, serum triglyceride (TG) levels were measured using a triglyceride colorimetric kit (LSK302200) purchased from Lifespan Bioscience (Seattle, DC, USA).

Data set [3] relates to C57BL/6J mice. Briefly: Fasting serum levels of metabolic hormones (ELISA). The data set is classed as in vivo. The conditions noted are these: orlistat 40 mg/kg/day, 8 weeks.
Description: Mouse serum was analyzed to quantify total serum ghrelin using a mouse enzyme-linked immunosorbent assay (ELISA) ghrelin kit (EIAM-GHR-1) obtained from Raybiotech (Norcross, GA, USA), serum leptin by mouse leptin Duoset ELISA kit (DY49805) obtained from R&D Systems (Minneapolis, MN, USA), serum adiponectin and insulin by commercial mouse ELISA kits (KMP0041 and EMINS) obtained from Thermo Fisher Scientific (Waltham, MA, USA). All assays were carried out following the manufacturer's instructions. Finally, the absorbances were quantified at 450 nm and turbidity corrections at 590 nm using Multiskan™ FC Microplate Photometer (Waltham, MA, USA).
The target of data set [4] is T1, pancreatic lipase type-VI (Sus scrofa, UniProt P00591).
T1 sequence (P00591 1-450): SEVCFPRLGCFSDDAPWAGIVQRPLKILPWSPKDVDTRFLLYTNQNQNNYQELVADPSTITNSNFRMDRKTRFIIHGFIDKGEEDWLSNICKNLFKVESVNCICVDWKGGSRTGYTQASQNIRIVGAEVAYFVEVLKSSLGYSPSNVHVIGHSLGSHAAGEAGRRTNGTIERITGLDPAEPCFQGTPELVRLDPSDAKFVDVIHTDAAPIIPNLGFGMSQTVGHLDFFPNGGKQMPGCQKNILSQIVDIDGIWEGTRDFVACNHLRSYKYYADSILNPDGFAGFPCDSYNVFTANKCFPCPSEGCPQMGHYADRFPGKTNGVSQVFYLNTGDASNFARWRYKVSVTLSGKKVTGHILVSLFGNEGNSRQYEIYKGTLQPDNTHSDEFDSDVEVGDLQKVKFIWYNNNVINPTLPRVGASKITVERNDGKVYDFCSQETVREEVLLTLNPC
Description: Pancreatic lipase inhibition and jump dilution (residence time). It counts as biochemical. The procedure: Pancreatic lipase inhibition was measured according to the procedures described in our previous study. Briefly, samples, substrate, and pancreatic lipase were dis-solved in McIlvaine buffer (0.1 M Citrate-Na2HPO4, pH 7.4). Then, 50 μL of substrate 4-methylumbelliferyl oleate (1 mM) was pre-incubated with 25 μL of peptide sample for 10 min in a black 96-well microplate. Then, 25 μL of pancreatic lipase type-VI (200 U/mL) were pipetted, and the reaction was carried out for one hour. The production of 4-methylumbelliferone was measured fluorometrically using a Fluoroskan Ascent FL Microplate Fluorometer and Luminometer, ThermoFisher Scientific (Waltham, MA, USA) using an excitation wavelength of 355 nm and emission wavelength of 460 nm. The positive control (no inhibitor) used the buffer instead of the sample, and buffer was used instead of pancreatic lipase solution for negative control (no pancreatic lipase activity). Finally, a jump dilution experiment was carried out, as previously reported by Kumar and Lowery. Briefly, enzyme-inhibitor complexes were formed by pre-incubating the substrate, pancreatic lipase (6000 U/mL), and inhibitors (10×IC50) for three hours. […] Finally, the residence time was calculated by measuring tau determined as the reciprocal of koff after fitting the enzyme progress curves to Equation (1).

Another data set has as its system pancreatic lipase. The conditions noted are these: peptides identified from fractionated canary seed proteins; cited from earlier work.

On to `CCCCCCCCCCC[C@@H](C[C@@H]1OC(=O)[C@H]1CCCCCC)OC(=O)[C@H](CC(C)C)NC=O` [orlistat], for which, in the data set with C57BL/6J mice [1], the Kidney weight is on record as 402.08 ± 7.43 a mg. Further, in the data set on C57BL/6J mice [2], the “serum TG concentration vs WD” value is “effective in lowering” and the “serum total cholesterol vs WD” value was “no difference”. Moreover, the serum ghrelin concentration entry with C57BL/6J mice [3] is recorded as “increased”. Also, the “reversibility of pancreatic lipase inhibition” value in data set [4] (30-fold jump dilution) was “slow reversibility”. The “inhibition of pancreatic lipase (PL) in pre-formed complexes” value in data set [4] (inhibitor 10×IC50, monitored for three hours) was “Complete inhibition”.

Take LADR: in the data set on pancreatic lipase, the “inhibitory activity towards pancreatic lipase” value is reported as “high inhibitory activity”.

As for LSPR, the “inhibitory activity towards pancreatic lipase” value in the data set with pancreatic lipase is reported as “high inhibitory activity”.

Consider TVGPR, for which the “inhibitory activity towards pancreatic lipase” value in the data set with pancreatic lipase is listed as “high inhibitory activity”.

VPPR: the “inhibitory activity towards pancreatic lipase” value with pancreatic lipase was “high inhibitory activity”.

Values taken from patent US20260284143A1, “METHOD OF USING BIOACTIVE PEPTIDE FRACTION ISOLATED FROM CANARY SEED” (Purdue Research Foundation, priority 2023, published 2026).
